According to patent publication US12329738B2, “Urolithin A and a composition containing same for external use in inflammations of various etiologies” (WARSZAWSKI UNIWERSYTET MEDYCZNY, priority 2018, dated 2025):

Assays:
[1] = system: Wistar rats (DNCB-induced atopic dermatitis); experiment: Pruritus level (scratch reflexes) in DNCB-induced atopic dermatitis rat model; type: in vivo
Description: Wistar rats aged 5-6 weeks (at the start of the experiment) kept under standard conditions with free access to feed and water were used for the tests. The animals were divided into 5 groups, 8 individuals in each group. To prepare 2,4-dinitrochlorobenzene (DNCB) composition inducing inflammation, DNCB was dissolved in 70% ethanol to a final concentration of 1.5% (w/v). Therapeutic composition was an ointment based on white petrolatum with 0.2% or 1.0% urolithin A added. The control ointment was white petrolatum without addition of urolithin A. The induction of chronic atopic dermatitis involved local 9-fold infiltration with 60 μl 1.5% 2,4-dinitrochlorobenzene (DNCB) on each (external and internal) surface of the right ear over 3 weeks (3 times a week). Negative control was the right ear of rats without induction inflammation. Treatment of atopic dermatitis with 0.2% or 1.0% urolithin composition and white petrolatum (control) or 1.0% hydrocortisone composition (positive control) was started eight days after sensitization—one day before the fourth application of DNCB. Ointments with appropriate for given group drug added were applied in a total volume of about 20 μl to each ear surface one day before and 6 hours after each DNCB application (for a period of 3 weeks). The negative control group consisted of rats without induced inflammation and treated with white petrolatum in a regimen analogous to the composition of urolithin A or hydrocortisone. Measurement of pruritus level (as measured by scratching reflexes) was evaluated as the total frequency of scratch reflexes during 10 minutes immediately after DNCB application on days 0, 4, 8, 12, 16, 20, 24, 28 and 32 of the experiment). Scratching was defined as a single or series of several reflexes of scratching with a paw directed at the site of DNCB application. The experimental results obtained were analyzed using the Statistica 7.1 program (StatSoft, Inc., Tulsa, OK, USA) and presented as mean values±SE. Statistical significance was set at P≤0.05. The results with established normal distribution in the D'Agostin and Pearson test were prepared using two- or three-factor analysis of variance (ANOVA). Parametric post-hoc analysis for individual time points was performed using the Bonferroni test.

[2] = system: Wistar rats (DNCB-induced atopic dermatitis); experiment: Peripheral blood morphology in DNCB-induced atopic dermatitis rat model; type: in vivo
Description: Wistar rats aged 5-6 weeks (at the start of the experiment) kept under standard conditions with free access to feed and water were used for the tests. The animals were divided into 5 groups, 8 individuals in each group. To prepare 2,4-dinitrochlorobenzene (DNCB) composition inducing inflammation, DNCB was dissolved in 70% ethanol to a final concentration of 1.5% (w/v). Therapeutic composition was an ointment based on white petrolatum with 0.2% or 1.0% urolithin A added. The control ointment was white petrolatum without addition of urolithin A.
The induction of chronic atopic dermatitis involved local 9-fold infiltration with 60 μl 1.5% 2,4-dinitrochlorobenzene (DNCB) on each (external and internal) surface of the right ear over 3 weeks (3 times a week). Negative control was the right ear of rats without induction inflammation.
Treatment of atopic dermatitis with 0.2% or 1.0% urolithin composition and white petrolatum (control) or 1.0% hydrocortisone composition (positive control) was started eight days after sensitization—one day before the fourth application of DNCB. Ointments with appropriate for given group drug added were applied in a total volume of about 20 μl to each ear surface one day before and 6 hours after each DNCB application (for a period of 3 weeks). The negative control group consisted of rats without induced inflammation and treated with white petrolatum in a regimen analogous to the composition of urolithin A or hydrocortisone.
2 mL blood samples were drawn into syringes (containing heparin as an anticoagulant) from the heart under general anesthesia (isoflurane) on day 32 of the experiment. The test was conducted using the DIATRON automated hematology analyzer. Peripheral blood analysis included the assessment of morphotic elements in blood: erythrocytes, leukocytes and thrombocytes and determination of the number and percentage of different types of leukocytes—WBC as well as values of erythrocyte indicators: hemoglobin (HGB), hematocrit (HCT), mean corpuscular volume (MCV), mean corpuscular hemoglobin (MCH) and mean corpuscular hemoglobin concentration (MCHC).
The experimental results obtained were analyzed using the Statistica 7.1 program (StatSoft, Inc., Tulsa, OK, USA) and presented as mean values±SE. Statistical significance was set at P≤0.05. The results with established normal distribution in the D'Agostin and Pearson test were prepared using two- or three-factor analysis of variance (ANOVA). Parametric post-hoc analysis for individual time points was performed using the Bonferroni test.

TNF-alpha = TNF-alpha production by macrophages from human peripheral blood monocytes (ELISA); type: cell-based; settings: 40 μM; LPS 100 ng/mL, 24 h; FIG. 16
Description: Monocytes were isolated from peripheral human blood by a standard method using dextran sedimentation and Ficoll Hypaque gradient centrifugation. After isolation, monocytes were suspended in RPMI 1640 medium supplemented with L-glutamine, HEPES, streptomycin, amphotericin and gentamicin, and 20% autologous serum. Cell culture was carried out under these conditions for 7 days. […] After 24h, TNF-alpha level in the medium was determined using the immunochemical ELISA method (BD biosciences). The obtained results of experiments on in vitro models were analyzed using the Statistica 13 program (StatSoft, Inc., Tulsa, OK, USA) and presented as mean values±SEM. Statistical significance was set at P≤0.05. The results with established normal distribution in the D'Agostin and Pearson test were prepared using analysis of variance (ANOVA). Parametric post-hoc analysis was performed using Dunnett's test.

hyaluronidase = experiment: Hyaluronidase activity, pharmacopoeial method (USP); type: biochemical; settings: experiments by the inventors
Text: US application US2010323985A discloses the use of a compound from the group of urolithins, urolithin B, as a component of a pharmaceutical or cosmetic preparation for topical and/or parenteral use. […] Urolithin B has been indicated as an example of one of hyaluronic acid degradation inhibitors, alone or in a mixture. With respect to the above, the inventors conducted experiments according to the pharmacopoeial method (USP), observing as a result no effect of urolithin A on hyaluronidase activity. […] Also, in the case of psoriasis, research is currently underway on effectiveness of hyaluronidase subcutaneous injections ([…] preparation; https://clinicaltrials.gov/ct2/show/NCT01987609).

[3] = system: carrageenan-induced paw edema in mice; settings: oral administration one hour after induction of edema, next 24 hours; cited from earlier work
human fibroblasts = human fibroblasts in vitro; cited from earlier work
[4] = following ingestion of food products rich in ellagitannins; cited from earlier work
[5] = system: neutrophils and macrophages; settings: cited from earlier work
[6] = day 32, 1% hydrocortisone, urolithin A 0.2 and 1%

O=c1oc2cc(O)ccc2c2ccc(O)cc12 [urolithin A]
Inhibition of scratching reflexes, comparison of urolithin doses with each other ([1]; 0.2% vs 1%, p<0.05): more effective at a concentration of 1% | Reduction in scratching rate, urolithin vs. hydrocortisone ([1]; overall effect, p<0.05): stronger | Scratching rate (frequency of scratch reflexes) ([1]; topical ointment, urolithin A 0.2 and 1.0% (p<0.001), hydrocortisone 1% (p<0.01)): reduction in scratching rate | Inhibition of scratching reflexes compared to hydrocortisone 1% ([1]; urolithin A 0.2% ointment, p=0.39): absence of significantly greater efficiency | Inhibition of scratching reflexes compared to hydrocortisone 1% ([1]; urolithin A 1% ointment, p<0.05): significantly greater inhibition of scratching reflexes compared to hydrocortisone | WBC (leukocyte) level ([2]; 0.2% composition, day 32, vs petrolatum, p<0.05): reduced WBC values similar to 1% hydrocortisone | WBC (leukocyte) level ([2]; 1% composition, day 32, vs petrolatum, hydrocortisone p<0.05, urolithin A p<0.01): decrease in the WBC level | Final WBC values compared to negative control (without atopic dermatitis) ([2]; 1% hydrocortisone, urolithin A 0.2 and 1%): remained at a higher level compared to negative control groups | WBC growth inhibition compared to 1% hydrocortisone ([2]; 1% urolithin A): did not result in a significantly greater effect of WBC growth inhibition | MPV (fl), PDW (fl), PDWcv (%) ([2]; day 32): did not change | RBC, HGB, HCT, MCV ([2]; day 32): no changes | Concentration of hemoglobin in erythrocytes (MCH and MCHC) ([2]; day 32, 1% hydrocortisone (p<0.05), urolithin A 0.2 and 1.0%): this effect was not seen | Monocyte population [2, 6]: significantly inhibited the increase in the level of all three leukocyte populations | Neutrophil population [2, 6]: significantly inhibited the increase in the level of all three leukocyte populations | Lymphocyte level ([2]; day 32, 1% hydrocortisone, urolithin A 0.2 and 1%, vs petrolatum): significantly inhibited the increase in the level of all three leukocyte populations | Inhibition of TNF-alpha production by macrophages from human peripheral blood monocytes (TNF-alpha): most active compound | Effect on hyaluronidase activity (hyaluronidase): no effect | Carrageenan-induced paw edema size [3]: significantly reduced its size | Collagen synthesis (human fibroblasts): stimulated collagen synthesis | Inhibition of fibroblast aging (human fibroblasts): no inhibition of fibroblast aging was found | mRNA expression for matrix metalloproteinase-1 (human fibroblasts): inhibited the mRNA expression | Concentration in feces, tissues, blood and urine [4]: ≤ 100 µM | Cytotoxic or antiproliferative activity [5]: there was not observed either cytotoxic or antiproliferative activity
